According to US10597388B2, “Pyridazinone herbicides” (FMC CORPORATION, priority 2014, dated 2020):

Assays:
Assay type in all cases: in vivo
[1] = test system: blackgrass (Alopecurus myosuroides); assay: Test C greenhouse herbicide test, pre- and postemergence
Procedure, shortened: (§1)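 Visual ratings on a 0 to 100 scale (0 = no effect, 100 = complete control) versus untreated controls, scored 13–15 d after treatment. Soil-applied preemergence to seeded loam/sand; foliar postemergence to 1- to 4-leaf plants (2–18 cm) in peat-vermiculite mix; compounds formulated in solvent plus surfactant.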

[2] = test system: oilseed rape (Brassica napus); assay: as above
Procedure, shortened: as §1

[3] = test system: pigweed (Amaranthus retroflexus); assay: as above
Procedure, shortened: as §1

[4] = test system: soybean (Glycine max); assay: as above
Procedure, shortened: as §1

[5] = test system: johnsongrass (Sorghum halepense); assay: as above
Procedure, shortened: as §1

[6] = test system: morningglory (Ipomoea coccinea); assay: as above
Procedure, shortened: as §1

[7] = test system: velvetleaf (Abutilon theophrasti); assay: as above
Procedure, shortened: as §1

[8] = test system: lambsquarters (Chenopodium album); assay: as above
Procedure, shortened: as §1

[9] = test system: corn (Zea mays); assay: as above
Procedure, shortened: as §1

[10] = test system: foxtail, giant (giant foxtail, Setaria faberii); assay: as above
Procedure, shortened: as §1

[11] = test system: ryegrass, Italian (Italian ryegrass, Lolium multiflorum); assay: as above
Procedure, shortened: as §1

[12] = test system: waterhemp (common waterhemp, Amaranthus rudis); assay: as above
Procedure, shortened: as §1

[13] = test system: ragweed (common ragweed, Ambrosia elatior); assay: as above
Procedure, shortened: as §1

[14] = test system: crabgrass, large (large crabgrass, Digitaria sanguinalis); assay: as above
Procedure, shortened: as §1

[15] = test system: kochia (Kochia scoparia); assay: Test C greenhouse herbicide test, postemergence
Procedure, shortened: (§2)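 Steps: pot plants in peat-based medium; spray postemergence at 1- to 4-leaf stage; hold in greenhouse 13 to 15 d; score visually against controls from 0 (no effect) to 100 (complete control).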

[16] = test system: oat, wild (wild oat, Avena fatua); assay: Test C greenhouse herbicide test, postemergence
Procedure, shortened: as §2

[17] = Postemergence, 31 g ai/ha, scale 0 to 100 (0 no effect, 100 complete control)
[18] = Postemergence, 125 g ai/ha, scale 0 to 100, 0 is no effect, 100 is complete control
[19] = Postemergence, 250 g ai/ha, scale 0 to 100, 0 no effect, 100 complete control, 13 to 15 d
[20] = Preemergence, 31 g ai/ha, scale 0 to 100, 0 is no effect, 100 is complete control
[21] = Preemergence, 62 g ai/ha, scale 0 to 100, 0 is no effect, 100 is complete control
[22] = Preemergence, 125 g ai/ha, scale 0 to 100, 0 is no effect, 100 is complete control
[23] = Preemergence, 250 g ai/ha, scale 0 to 100 (0 no effect, 100 complete control)
[24] = postemergence, 62 g ai/ha, scale 0 to 100, 0 no effect, 100 complete control
[25] = Postemergence, 62 g ai/ha, 0 to 100 scale (0 no effect, 100 complete control)
[26] = postemergence, 125 g ai/ha, scale 0 to 100, 0 no effect, 100 complete control

Cc1ccc2ccccc2c1-c1c(O)c(Cl)nn(C)c1=O [Compound 125]
Plant response rating, Blackgrass [1, 17]: 20 | Plant response rating, Blackgrass [1, 18]: 60 | Plant response rating, Blackgrass [1, 19]: 80 | Plant response rating, Blackgrass [1, 20]: 50 | Plant response rating, Blackgrass [1, 21]: 55 | Plant response rating, Blackgrass [1, 22]: 55 | Blackgrass plant response rating [1, 23]: 90 | Blackgrass plant response rating [1, 24]: 45 | Plant response rating, Oilseed Rape [2, 17]: 0 | Plant response rating, Oilseed Rape [2, 18]: 5 | Plant response rating, Oilseed Rape [2, 19]: 10 | Plant response rating, Oilseed Rape [2, 20]: 85 | Plant response rating, Oilseed Rape [2, 21]: 0 | Plant response rating, Oilseed Rape [2, 22]: 85 | Oilseed Rape plant response rating [2, 23]: 100 | Plant response rating, Pigweed [3, 17]: 95 | Plant response rating, Pigweed [3, 18]: 98 | Plant response rating, Pigweed [3, 19]: 98 | Plant response rating, Pigweed [3, 20]: 100 | Plant response rating, Pigweed [3, 21]: 100 | Plant response rating, Pigweed [3, 22]: 100 | Pigweed plant response rating [3, 23]: 100 | Plant response rating, Soybean [4, 17]: 0 | Plant response rating, Soybean [4, 18]: 10 | Plant response rating, Soybean [4, 19]: 10 | Plant response rating, Soybean [4, 20]: 0 | Plant response rating, Soybean [4, 21]: 5 | Plant response rating, Soybean [4, 22]: 30 | Soybean plant response rating [4, 23]: 35 | Plant response rating, Johnsongrass [5, 17]: 5 | Plant response rating, Johnsongrass [5, 18]: 20 | Plant response rating, Johnsongrass [5, 19]: 20 | Plant response rating, Johnsongrass [5, 20]: 40 | Plant response rating, Johnsongrass [5, 21]: 55 | Plant response rating, Johnsongrass [5, 22]: 60 | Johnsongrass plant response rating [5, 23]: 70 | Plant response rating, Morningglory [6, 17]: 95 | Plant response rating, Morningglory [6, 18]: 100 | Plant response rating, Morningglory [6, 19]: 100 | Plant response rating, Morningglory [6, 20]: 90 | Plant response rating, Morningglory [6, 21]: 95 | Plant response rating, Morningglory [6, 22]: 95 | Morningglory plant response rating [6, 23]: 98 | Plant response rating, Velvetleaf [7, 17]: 85 | Plant response rating, Velvetleaf [7, 18]: 95 | Plant response rating, Velvetleaf [7, 19]: 98 | Plant response rating, Velvetleaf [7, 20]: 95 | Plant response rating, Velvetleaf [7, 21]: 100 | Plant response rating, Velvetleaf [7, 22]: 100 | Velvetleaf plant response rating [7, 23]: 100 | Plant response rating, Lambsquarters [8, 17]: 90 | Plant response rating, Lambsquarters [8, 18]: 98 | Plant response rating, Lambsquarters [8, 19]: 100 | Plant response rating, Lambsquarters [8, 20]: 90 | Plant response rating, Lambsquarters [8, 21]: 100 | Plant response rating, Lambsquarters [8, 22]: 100 | Lambsquarters plant response rating [8, 23]: 100 | Plant response rating, Corn [9, 17]: 5 | Plant response rating, Corn [9, 18]: 5 | Plant response rating, Corn [9, 19]: 5 | Plant response rating, Corn [9, 20]: 0 | Plant response rating, Corn [9, 21]: 0 | Plant response rating, Corn [9, 22]: 20 | Corn plant response rating [9, 23]: 55 | Corn plant response rating [9, 24]: 0 | Plant response rating, Foxtail, Giant [10, 17]: 70 | Plant response rating, Foxtail, Giant [10, 18]: 95 | Plant response rating, Foxtail, Giant [10, 19]: 98 | Plant response rating, Foxtail, Giant [10, 20]: 95 | Plant response rating, Foxtail, Giant [10, 21]: 100 | Plant response rating, Foxtail, Giant [10, 22]: 98 | Foxtail, Giant plant response rating [10, 23]: 100 | Plant response rating, Ryegrass, Italian [11, 17]: 85 | Plant response rating, Ryegrass, Italian [11, 18]: 95 | Plant response rating, Ryegrass, Italian [11, 19]: 95 | Plant response rating, Ryegrass, Italian [11, 20]: 85 | Plant response rating, Ryegrass, Italian [11, 21]: 95 | Plant response rating, Ryegrass, Italian [11, 22]: 95 | Ryegrass, Italian plant response rating [11, 23]: 95 | Plant response rating, Waterhemp [12, 17]: 85 | Plant response rating, Waterhemp [12, 18]: 98 | Plant response rating, Waterhemp [12, 19]: 100 | Plant response rating, Waterhemp [12, 20]: 98 | Plant response rating, Waterhemp [12, 21]: 100 | Plant response rating, Waterhemp [12, 22]: 100 | Waterhemp plant response rating [12, 23]: 100 | Plant response rating, Ragweed [13, 17]: 95 | Plant response rating, Ragweed [13, 18]: 98 | Plant response rating, Ragweed [13, 19]: 98 | Plant response rating, Ragweed [13, 20]: 95 | Plant response rating, Ragweed [13, 21]: 100 | Plant response rating, Ragweed [13, 22]: 98 | Ragweed plant response rating [13, 23]: 100 | Plant response rating, Crabgrass, Large [14, 17]: 25 | Plant response rating, Crabgrass, Large [14, 18]: 40 | Plant response rating, Crabgrass, Large [14, 19]: 60 | Plant response rating, Crabgrass, Large [14, 20]: 40 | Plant response rating, Crabgrass, Large [14, 21]: 45 | Plant response rating, Crabgrass, Large [14, 22]: 75 | Crabgrass, Large plant response rating [14, 23]: 98 | Crabgrass, Large plant response rating [14, 24]: 35 | Plant response rating, Kochia [15, 17]: 85 | Plant response rating, Kochia [15, 18]: 90 | Plant response rating, Kochia [15, 19]: 90 | Plant response rating, Oat, Wild [16, 17]: 85 | Plant response rating, Oat, Wild [16, 18]: 95 | Plant response rating, Oat, Wild [16, 19]: 95

Cc1nn(C)c(=O)c(-c2cccc3ccc(C#N)cc23)c1O [Compound 127]
Plant response rating, Blackgrass [1, 17]: 0 | Blackgrass plant response rating [1, 25]: 5 | Plant response rating, Blackgrass [1, 19]: 35 | Blackgrass plant response rating [1, 26]: 5 | Plant response rating, Oilseed Rape [2, 17]: 0 | Oilseed Rape plant response rating [2, 25]: 0 | Plant response rating, Oilseed Rape [2, 19]: 100 | Oilseed Rape plant response rating [2, 26]: 25 | Plant response rating, Pigweed [3, 17]: 70 | Pigweed plant response rating [3, 25]: 85 | Plant response rating, Pigweed [3, 19]: 95 | Pigweed plant response rating [3, 26]: 90 | Plant response rating, Soybean [4, 17]: 0 | Soybean plant response rating [4, 25]: 10 | Plant response rating, Soybean [4, 19]: 35 | Soybean plant response rating [4, 26]: 30 | Plant response rating, Johnsongrass [5, 17]: 5 | Johnsongrass plant response rating [5, 25]: 5 | Plant response rating, Johnsongrass [5, 19]: 15 | Johnsongrass plant response rating [5, 26]: 10 | Plant response rating, Morningglory [6, 17]: 65 | Morningglory plant response rating [6, 25]: 75 | Plant response rating, Morningglory [6, 19]: 98 | Morningglory plant response rating [6, 26]: 85 | Plant response rating, Velvetleaf [7, 17]: 20 | Velvetleaf plant response rating [7, 25]: 30 | Plant response rating, Velvetleaf [7, 19]: 55 | Velvetleaf plant response rating [7, 26]: 25 | Plant response rating, Lambsquarters [8, 17]: 70 | Lambsquarters plant response rating [8, 25]: 80 | Plant response rating, Lambsquarters [8, 19]: 98 | Lambsquarters plant response rating [8, 26]: 85 | Plant response rating, Corn [9, 17]: 0 | Corn plant response rating [9, 25]: 0 | Plant response rating, Corn [9, 19]: 10 | Corn plant response rating [9, 26]: 5 | Plant response rating, Foxtail, Giant [10, 17]: 5 | Foxtail, Giant plant response rating [10, 25]: 5 | Plant response rating, Foxtail, Giant [10, 19]: 40 | Foxtail, Giant plant response rating [10, 26]: 25 | Plant response rating, Ryegrass, Italian [11, 17]: 50 | Ryegrass, Italian plant response rating [11, 25]: 75 | Plant response rating, Ryegrass, Italian [11, 19]: 90 | Ryegrass, Italian plant response rating [11, 26]: 80 | Plant response rating, Waterhemp [12, 17]: 70 | Waterhemp plant response rating [12, 25]: 85 | Plant response rating, Waterhemp [12, 19]: 95 | Waterhemp plant response rating [12, 26]: 85 | Plant response rating, Ragweed [13, 17]: 10 | Ragweed plant response rating [13, 25]: 55 | Plant response rating, Ragweed [13, 19]: 90 | Ragweed plant response rating [13, 26]: 60 | Plant response rating, Crabgrass, Large [14, 17]: 0 | Crabgrass, Large plant response rating [14, 25]: 5 | Plant response rating, Crabgrass, Large [14, 19]: 25 | Crabgrass, Large plant response rating [14, 26]: 10 | Plant response rating, Kochia [15, 17]: 40 | Kochia plant response rating [15, 25]: 85 | Plant response rating, Kochia [15, 19]: 90 | Kochia plant response rating [15, 26]: 95 | Plant response rating, Oat, Wild [16, 17]: 10 | Oat, Wild plant response rating [16, 25]: 20 | Plant response rating, Oat, Wild [16, 19]: 60 | Oat, Wild plant response rating [16, 26]: 55
